Results on two compounds are retold here after patent US9718809B2, “Bisarylsulfonamides useful in the treatment of inflammation and cancer” (Kancera AB, priority 2011, dated 2017).

Series [1] concerns F-2,6-P2 in MCF-7 cells. In words: Quantification of F-2,6-P2 (Van Schaftingen coupled enzyme assay) in MCF-7 cells. It is filed as cell-based. The settings on record: Homo sapiens, MCF7, read-out: IC50 based on quantification of F-2,6-P2. From the text: (§1) A method for quantification of F-2,6-P2 has been described by Van Schaftingen et al. (1982) Eur. J. Biochem. 129, 191-5. This sensitive assay is based on the potent activation of pyrophosphate dependent phosphofructokinase-1 (PPi-PFK) from potato tubers by F-2,6-P2. The use of a series of coupled enzymes leads to a consumption of NADH (nicotinamide adenine dinucleotide) that can be followed spectrophotometrically (an updated protocol is available in Van Schaftingen, (1984) Methods of Enzymatic Analysis (Bergmeyer, H. U., ed.), 3rd edn., vol. 6, pp. 335-341, Verlag Chemie, Weinheim). A protocol for measurements in 96-well microtiter plate format is also available (Bruni et al., (1989) Anal. Biochem. 178, 324-6).
(§2) The levels of F-2,6-P2 have been determined using the van Shaftingen assay as described in the protocol below, in six different cancer cell lines endogenously expressing varying levels of the different isoforms of PFK-2/BPase-2 (MCF-7, PANC-1, NUGC-3, SW480, SW620 and MIA PaCa-2). All reagents were purchased from commercial sources or prepared in-house.
Cell line A (MCF-7, human breast adenocarcinoma cell line): MCF-7 cells (ATCC-HTB-22), lot. no. 58469417. […]

Series [2] has as its system NMRI mice. In words: In vivo tolerance in NMRI mice. Also on record: species or system mouse. Conditions: 25 and 45 mg/kg. The method, then:
In vivo tolerance was tested in NMRI mice using Examples 157 and 183 in 2 doses (25 and 45 mg/kg), following intraperitoneal injections daily for seven days.

Series [3] can be described thus: In vitro metabolic stability in human liver microsomes. It is filed as in vitro ADME. The settings on record: pH 7.4, pooled human liver microsomes 0.5 mg/ml, NADPH 1 mM, compound 3 μM. The procedure: Pooled human liver microsomes (final protein conc 0.5 mg/ml), 0.1 M phosphate buffer (pH 7.4) and NADPH (final conc 1 mM) were pre-incubated at 37° C. Example 183 (final conc 3 μM) was added to initiate the reaction. A control incubation where 0.1 M phosphate buffer (pH 7.4) was added instead of NADPH was done as a parallel experiment. After incubation for 0, 5, 10, 30 and 45 min with NADPH (for 45 min in the control incubation), MeCN containing internal standard was added to stop the reactions. The samples were centrifuged at 2500 rpm for 20 min at 4° C. before analysis using LC-MS/MS.
In general terms: Liver microsomes are a subcellular fraction often used to study metabolism.

A short description of series [4]: Plasma exposure in NMRI nude mice. It is filed as in vivo, mouse. The settings on record: 45 mg/kg, 0.5 h after last injection (day 21). The method, then: In a related study using the same dosing schedule in NMRI nude mice, blood samples were drawn 0.5 h after last injection (day 21) to determine exposure of Example 183. Plasma, prepared by centrifugation of the blood, was frozen and kept at −20° C. Thawed plasma samples were precipitated with MeCN, centrifuged and the supernatants were analyzed by LC-MSMS. Standard samples, prepared by spiking blank plasma with Example 183, were used for quantification.

In series [5] the test system is F-2,6-P2 in MIA PaCa-2 cells. Put plainly: Quantification of F-2,6-P2 (Van Schaftingen coupled enzyme assay) in MIA PaCa-2 cells. Conditions: Homo sapiens, read-out: IC50 based on quantification of F-2,6-P2. It is filed as cell-based.
Description: as §1, §2
Cell line F (MIA PaCa-2, human pancreatic carcinoma): MIA PaCa-2 cells (ATCC-CRL-1420), lot. no. 59270201. Cells were seeded at a concentration of ˜250 000 cells/mL in 100 μL growth medium (˜25 000 cells/well). […]

Series [6] deals with MIA PaCa-2 xenografts. In words: Inhibition of tumour growth, MIA PaCa-2 xenografts in NMRI nude mice. It is filed as in vivo, mouse. The settings on record: 45 mg/kg twice a day, 3 weeks. The method, then:
FIG. 3 illustrates the effects of treatment with Example 183 on the growth of established xenografts from the human pancreatic carcinoma cell line MIA PaCa-2 in NMRI nude mice. NMRI nude mice were injected subcutaneously with MIA PaCa-2 cells. At an average tumor size of around 100 mm^3 mice were selected and randomized into treated (injected with substance) and control (vehicle treated) groups. Example 183 was administered at two doses, 25 mg/kg and 45 mg/kg, twice a day with 12 hours between administrations. From the day of inoculation the tumors were scored or measured three times a week using a digital caliper, and the body weights were determined at the same time points. The dose of injected substance was adjusted to the actual body weight of each animal. The dosing of the animals was in a period of 3 weeks.

Series [7] can be described thus: Cell toxicity, CellTiter-Blue Cell Viability Assay. Conditions: human, MIA PaCa-2 pancreatic carcinoma cells, MIA PaCa-2 cells, 72 h culture, read-out: IC50 based on cell toxicity. The procedure: The CellTiter-Blue® Cell Viability Assay provides a homogeneous, fluorometric method for estimating the number of viable cells present in multi-well plates. It uses the indicator dye resazurin to measure the metabolic capacity of cells. Viable cells retain the ability to reduce resazurin into resorufin, which is highly fluorescent.
Stock solutions (10 or 100 mM in DMSO) of compounds were serially diluted 1:2 in 11 concentrations. 25 nL/well (100 mM stock) or 50 nL/well (10 mM stock) were acoustically dispensed in assay plates with EDC acoustic dispenser. Final starting conc. in assay was 20 μM (0.2% DMSO) or 100 μM (0.1% DMSO) for test compounds.
Cells (MIA-PaCa-2; pancreatic carcinoma) were seeded in assay plates (384-well black/clear, Greiner #781091) pre-dispensed with compounds, 25 μL/well, and cultured for 72 h. The cell concentration was 750 cells/well. After 72 h culture, Celltiter Blue reagent was added (5 μL/well) and the plates were incubated for 2 h. The plates were read in an Envision fluorescence reader with Ex544 nm/Em590 nm. Results were calculated as % cytotoxicity compared to background (cells treated with 0.2% DMSO).
Background: The colour change of resazurin is a common sign of viable cells or microbes.

Molecules are shown by their SMILES.

In general, IC50 refers to the concentration that inhibits the measured activity by half. On to `COCCOC(=O)c1ccc(NS(=O)(=O)c2cc(-c3ccc4c(c3)CCO4)c(Cl)s2)cc1O` [Example 76, 2-Methoxyethyl 4-({[5-chloro-4-(2,3-dihydro-1-benzofuran-5-yl)-2-thienyl]sulfonyl}amino)-2-hydroxybenzoate], for which the IC50 in series [1] came out at 900 nM.
One may read the half-life as how long it takes for the measured level to halve. As to `O=C(OCCO)c1ccc(NS(=O)(=O)c2cccc(-c3cc(F)ccc3O)c2)cc1O` [Example 183, 2-Hydroxyethyl 4-{[(5′-fluoro-2′-hydroxybiphenyl-3-yl)sulfonyl]amino}-2-hydroxybenzoate], the “histological examinations of organs” value in series [2] (intraperitoneal daily for seven days, adrenal gland, brain, cerebellum, heart, intestines, kidneys, liver, lungs, mesenteric lymph node, pancreas, spleen) is given as “Specific lesions consistent with toxic damage were not observed”. Also, the “macro observations during and after treatment” value in series [2] (intraperitoneal injections daily for seven days) is recorded as “no sign of abnormal behavior or health problem”. Also, the half-life at 3 μM in series [3] amounted to 55 min. The microsomal CLint at 3 μM in series [3] (read-out: intrinsic clearance) was determined as 25 µL/min/mg. Further, the “exposure of unbound compound in plasma versus in vitro IC50 value (MIA PaCa-2 cells)” value in series [4] is “exceeded the in vitro IC50 value”. Moreover, the IC50 in series [5] was determined as 200 nM. In series [6], the “tumor growth compared to a vehicle treated group” value is “significant inhibition (p<0.01)”. Moreover, in series [7], the IC50 at 72 h turned out to be 2600 nM.
